Assay results from US9796742B2, “Kinase inhibitors” (Respivert Limited, priority 2012, dated 2017).

Tests used:
PBMCs [1] = test: LPS-induced TNFα/IL-8 release in PBMC cells; format: cell-based; details: Homo sapiens, LPS-stimulated PBMCs, IL-8, read-out: IC50 Values for Inhibition of Cytokine Release, PBMCs IL-8
Procedure: Peripheral blood mononuclear cells (PBMCs) from healthy subjects are separated from whole blood using a density gradient (Lymphoprep, Axis-Shield Healthcare). The PBMCs are seeded in 96 well plates and treated with compounds at the desired concentration for 2 hours before addition of 1 ng/mL LPS (Escherichia Coli 0111:B4 from Sigma Aldrich) for 24 hours under normal tissue culture conditions (37° C., 5% CO2). The supernatant is harvested for determination of IL-8 and TNFα concentrations by sandwich ELISA (Duo-set, R&D systems) and read on the fluorescence microplate reader (Varioskan® Flash, ThermoFisher Scientific). The concentration at 50% inhibition (IC50) of IL-8 and TNFα production is calculated from the dose response curve.

p38 MAPKα = p38 MAPKα (Homo sapiens (Human), UniProt Q16539); test: p38 MAPKα enzyme inhibition (FRET, Z-LYTE; Method 2); format: biochemical
Chain of p38 MAPKα (Q16539 whole entry): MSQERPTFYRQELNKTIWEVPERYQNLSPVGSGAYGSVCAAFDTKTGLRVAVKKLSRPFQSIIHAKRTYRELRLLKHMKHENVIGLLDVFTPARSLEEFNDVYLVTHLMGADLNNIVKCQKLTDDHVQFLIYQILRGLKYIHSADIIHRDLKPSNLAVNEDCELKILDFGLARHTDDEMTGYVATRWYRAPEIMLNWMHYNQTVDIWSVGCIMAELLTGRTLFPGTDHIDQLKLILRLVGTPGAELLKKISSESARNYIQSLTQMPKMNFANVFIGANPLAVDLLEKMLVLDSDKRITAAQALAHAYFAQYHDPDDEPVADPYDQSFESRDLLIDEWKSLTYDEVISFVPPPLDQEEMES
Procedure: (§1) The enzyme inhibitory activities of compounds disclosed herein are determined by FRET using synthetic peptides labelled with both donor and acceptor fluorophores (Z-LYTE, Invitrogen Ltd., Paisley, UK).
The inhibitory activities of test compounds against the p38 MAPKα isoform (MAPK14: Invitrogen), are evaluated indirectly by determining the level of activation/phosphorylation of the down-stream molecule, MAPKAP-K2. The p38 MAPKα protein (80 ng/mL, 2.5 μL) is mixed with the test compound (2.5 μL of either 4 μg/mL, 0.4 μg/mL, 0.04 μg/mL or 0.004 μg/mL) for 2 hr at RT. […] The mixture is incubated for 1 hr at RT. Development reagent (protease, 5 μL) is added for 1 hr prior to detection in a fluorescence microplate reader (Varioskan® Flash, ThermoFisher Scientific).
Method 2 This method follows the same steps as Method 1 above, but utilises a higher concentration of the p38 MAPKα protein (2.5 μL of 200 ng/mL protein instead of 2.5 μL of 80 ng/mL protein) for mixing with the test compound.
(§2) In all cases, the site-specific protease cleaves non-phosphorylated peptide only and eliminates the FRET signal. Phosphorylation levels of each reaction are calculated using the ratio of coumarin emission (donor) over fluorescein emission (acceptor), for which high ratios indicate high phosphorylation and low ratios indicate low phosphorylation levels. The percentage inhibition of each reaction is calculated relative to non-inhibited control and the 50% inhibitory concentration (IC50 value) is then calculated from the concentration-response curve.

c-Src = c-Src (Homo sapiens (Human), UniProt P12931); test: c-Src enzyme inhibition (FRET, Z-LYTE); format: biochemical
Chain of c-Src (P12931 whole entry, looked up): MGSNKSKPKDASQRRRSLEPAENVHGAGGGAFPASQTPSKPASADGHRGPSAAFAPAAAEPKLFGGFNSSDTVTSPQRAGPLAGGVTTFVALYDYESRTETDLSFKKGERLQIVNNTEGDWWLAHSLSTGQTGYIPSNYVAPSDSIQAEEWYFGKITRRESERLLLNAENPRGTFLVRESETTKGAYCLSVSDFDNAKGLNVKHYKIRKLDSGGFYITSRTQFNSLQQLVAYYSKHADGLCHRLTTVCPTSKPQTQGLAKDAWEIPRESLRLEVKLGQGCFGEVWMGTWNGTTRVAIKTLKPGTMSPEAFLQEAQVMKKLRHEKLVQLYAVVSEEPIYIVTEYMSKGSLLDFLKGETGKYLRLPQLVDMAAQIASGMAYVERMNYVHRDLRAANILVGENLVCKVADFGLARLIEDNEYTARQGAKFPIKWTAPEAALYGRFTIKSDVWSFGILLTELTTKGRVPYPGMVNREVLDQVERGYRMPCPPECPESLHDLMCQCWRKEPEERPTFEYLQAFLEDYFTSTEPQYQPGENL
Procedure: as §1
(§3) The inhibitory activities of compounds of the invention against c-Src and Syk enzymes (Invitrogen), are evaluated in a similar fashion to that described hereinabove. The relevant enzyme (3000 ng/mL or 2000 ng/mL respectively, 2.5 μL) is incubated with the test compound (either 4 μg/mL, 0.4 μg/mL, 0.04 μg/mL, or 0.004 μg/mL, 2.5 μL each) for 2 hr at RT. The FRET peptides (8 μM. 2.5 μL), and appropriate ATP solutions (2.5 μL, 800 μM for c-Src, and 60 μM ATP for Syk) are then added to the enzymes/compound mixtures and incubated for 1 hr. Development reagent (protease, 5 μL) is added for 1 hr prior to detection in a fluorescence microplate reader (Varioskan® Flash, ThermoFisher Scientific).
as §2

Syk = Syk (Homo sapiens (Human), UniProt P43405); test: Syk enzyme inhibition (FRET, Z-LYTE); format: biochemical
Procedure: as §1, §3, §2

GSK3α = GSK3α (Homo sapiens (Human), UniProt P49840); test: GSK 3α enzyme inhibition (FRET, Z-LYTE; Method 2); format: biochemical
Chain of GSK3α (P49840 whole entry): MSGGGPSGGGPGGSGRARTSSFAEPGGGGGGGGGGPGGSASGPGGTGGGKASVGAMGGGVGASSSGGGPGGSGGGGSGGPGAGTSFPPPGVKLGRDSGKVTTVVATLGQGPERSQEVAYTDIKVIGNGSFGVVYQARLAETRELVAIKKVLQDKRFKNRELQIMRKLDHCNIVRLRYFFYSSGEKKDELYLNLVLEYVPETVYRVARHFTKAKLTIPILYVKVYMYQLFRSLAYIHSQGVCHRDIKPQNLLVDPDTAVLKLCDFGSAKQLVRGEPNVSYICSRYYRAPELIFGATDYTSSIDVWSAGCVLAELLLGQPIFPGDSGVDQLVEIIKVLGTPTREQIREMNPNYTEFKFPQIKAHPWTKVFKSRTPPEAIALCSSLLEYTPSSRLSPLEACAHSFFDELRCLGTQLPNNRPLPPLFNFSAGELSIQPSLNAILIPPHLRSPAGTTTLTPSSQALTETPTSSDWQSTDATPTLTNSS
Procedure: as §1
The inhibitory activities of compounds of the invention against the GSK 3α enzyme isoform (Invitrogen), are evaluated by determining the level of activation/phosphorylation of the target peptide. The GSK3-α protein (500 ng/mL, 2.5 μL) is mixed with the test compound (2.5 μL at either 4 μg/mL, 0.4 μg/mL, 0.04 μg/mL, or 0.004 μg/mL) for 2 hr at RT. The FRET peptide (8 μM, 2.5 μL), which is a phosphorylation target for GSK3α, and ATP (40 μM, 2.5 μL) are then added to the enzyme/compound mixture and the resulting mixture incubated for 1 hr. Development reagent (protease, 5 μL) is added for 1 hr prior to detection in a fluorescence microplate reader (Varioskan® Flash, ThermoFisher Scientific).
as §2
This method follows the same steps as Method 1 above, but utilises a shorter period of mixing of the test compound (105 minutes instead of 2 hours) with the GSK3-α protein.

PBMCs [2] = test: IL-2 and IFN gamma release in CD3/CD28 stimulated PBMC cells; format: cell-based; details: Homo sapiens, IL-2, read-out: IC50 Values for Inhibition of Cytokine Release, PBMCs IL-2
Procedure: PBMCs from healthy subjects are separated from whole blood using a density gradient (Lymphoprep, Axis-Shield Healthcare). Cells are added to a 96 well plate pre-coated with a mixture of CD3/[…] monoclonal antibodies (0.3 μg/mL eBioscience and 3 μg/mL BD Pharmingen respectively). Compound at the desired concentration is then added to the wells and the plate left for 3 days under normal tissue culture conditions. Supernatants are harvested and IL-2 and IFN gamma release determined by Sandwich ELISA (Duo-set, R&D System). The IC50 is determined from the dose response curve.

Structure (SMILES) | IC50 (p38 MAPKα) [nM] | IC50 (c-Src) [nM] | IC50 (Syk) [nM] | IC50 (GSK3α) [nM] | IC50 (PBMCs [1]) [nM] | IC50 (PBMCs [2]) [nM]
Cc1cc(Nc2nccc(Oc3ccc(NC(=O)Nc4cc(C(C)(C)C)nn4-c4ccc(P(C)(C)=O)cc4)c4ccccc34)n2)cc2cn[nH]c12 [Example 21, 1-(3-(tert-Butyl)-1-(4-(dimethylphosphoryl)phenyl)-1H-pyrazol-5-yl)-3-(4-((2-((7-methyl-1H-indazol-5-yl)amino)pyrimidin-4-yl)oxy)naphthalen-1-yl)urea] | 44 | 1 | 2 | 761 | 3.4 | 
CCP(=O)(CC)c1ccc(-n2nc(C(C)(C)C)cc2NC(=O)Nc2ccc(Oc3ccnc(Nc4ccccc4)n3)c3ccccc23)cc1 [Example 22, 1-(3-(tert-Butyl)-1-(4-(diethylphosphoryl)phenyl)-1H-pyrazol-5-yl)-3-(4-((2-(phenylamino)-pyrimidin-4-yl)oxy)naphthalen-1-yl)urea] | 67 | 9 | 200 | 818 | 32.8 | 
CC(C)(C)c1cc(NC(=O)Nc2ccc(Oc3ccnc(Nc4ccc(S(F)(F)(F)(F)F)cc4)n3)c3ccccc23)n(-c2ccc(P(C)(C)=O)cc2)n1 [Example 28, 1-(3-(tert-Butyl)-1-(4-(dimethylphosphoryl)phenyl)-1H-pyrazol-5-yl)-3-(4-((2-((4-(Pentafluorothio)phenyl)amino)pyrimidin-4-yl)oxy)naphthalen-1-yl)urea] | > 1000 | 372 | 884 | > 10000 | 214 | 
CC(C)(C)c1cc(NC(=O)Nc2ccc(Oc3ccnc(Sc4ccccc4)n3)c3ccccc23)n(-c2ccc(P(C)(C)=O)cc2)n1 [Example 29, 1-(3-(tert-Butyl)-1-(4-(dimethylphosphoryl)phenyl)-1H-pyrazol-5-yl)-3-(4-((2-(phenylthio)-pyrimidin-4-yl)oxy)naphthalen-1-yl)urea] | 149 | > 1000 | > 1000 | > 10000 | 150 | 
CN(CCCO)c1nccc(Oc2ccc(NC(=O)Nc3cc(C(C)(C)C)nn3-c3ccc(P(C)(C)=O)cc3)c3ccccc23)n1 [Example 30, 1-(3-(tert-Butyl)-1-(4-(dimethylphosphoryl)phenyl)-1H-pyrazol-5-yl)-3-(4-((2-((3-hydroxy-propyl)(methyl)amino)pyrimidin-4-yl)oxy)naphthalen-1-yl)urea] | 27 | 795 | > 1000 | > 10000 | 280 | 
C[Si](C)(C)c1cc(NC(=O)Nc2ccc(Oc3ccnc(Nc4ccccc4)n3)c3ccccc23)n(-c2cccc(CP(C)(C)=O)c2)n1 [Example 35, 1-(1-(3-((Dimethylphosphoryl)methyl)phenyl)-3-(trimethylsilyl)-1H-pyrazol-5-yl)-3-(4-((2-(phenylamino)pyrimidin-4-yl)oxy)naphthalen-1-yl)urea] |  |  |  | 1270 | 7.6 | 76.8
CCP(=O)(CC)Cc1cccc(-n2nc(C(C)(C)C)cc2NC(=O)Nc2ccc(Oc3ccnc(Nc4cc(C)c5[nH]ncc5c4)n3)c3ccccc23)c1 [Example 36, 1-(3-(tert-Butyl)-1-(3-((diethylphosphoryl)methyl)phenyl)-1H-pyrazol-5-yl)-3-(4-((2-((7-methyl-1H-indazol-5-yl)amino)pyrimidin-4-yl)oxy)naphthalen-1-yl)urea] | 159 | 8 | 9 | 3410 | 3.5 | 

The next lines start with results.

IC50 (p38 MAPKα) [nM] | IC50 (c-Src) [nM] | IC50 (Syk) [nM] | IC50 (GSK3α) [nM] | Structure (SMILES) | IC50 (PBMCs [1]) [nM] | IC50 (PBMCs [2]) [nM]
70 | 10 | 5 | 4860 | Cc1cc(Nc2nccc(Oc3ccc(NC(=O)Nc4cc(C(C)C)nn4-c4cccc(CP(C)(C)=O)c4)c4ccccc34)n2)cc2cn[nH]c12 [Example 37, 1-(1-(3-((Dimethylphosphoryl)methyl)phenyl)-3-isopropyl-1H-pyrazol-5-yl)-3-(4-((2-((7-methyl-1H-indazol-5-yl)amino)pyrimidin-4-yl)oxy)naphthalen-1-yl)urea] | 3 | 
24 |  |  | 2090 | COc1cc(Nc2cc(Oc3ccc(NC(=O)Nc4cc(C(C)C)nn4-c4cccc(CP(C)(C)=O)c4)c4ccccc34)ccn2)cc(C(=O)NCCN2CCOCC2)c1 [Example 50, 3-((4-((4-(3-(1-(3-((Dimethylphosphoryl)methyl)phenyl)-3-isopropyl-1H-pyrazol-5-yl)-ureido)naphthalen-1-yl)oxy)pyridin-2-yl)amino)-5-methoxy-N-(2-morpholinoethyl)-benzamide] | 1 | 16.1
58 | 8 |  | 2810 | COc1cc(Nc2cc(Oc3ccc(NC(=O)Nc4cc(C(C)C)nn4-c4cccc(CP(C)(C)=O)c4)c4ccccc34)ccn2)cc(OCCN2CCOCC2)c1 [Example 51, 1-(1-(3-((Dimethylphosphoryl)methyl)phenyl)-3-isopropyl-1H-pyrazol-5-yl)-3-(4-((2-((3-methoxy-5-(2-morpholinoethoxy)phenyl)amino)pyridin-4-yl)oxy)naphthalen-1-yl)urea] | 0.5 | 6.1
18 | 3 | 4 | 1190 | COCCOCCOCCOCCOc1cc(Nc2nccc(Oc3ccc(NC(=O)Nc4cc(C(C)C)nn4-c4cccc(CP(C)(C)=O)c4)c4ccccc34)n2)cc(OC)c1 [Example 52, 1-(4-((2-((3-(2,5,8,11-Tetraoxatridecan-13-yloxy)-5-methoxyphenyl)amino)pyrimidin-4-yl)oxy)naphthalen-1-yl)-3-(1-(3-((dimethylphosphoryl)methyl)phenyl)-3-isopropyl-1H-pyrazol-5-yl)urea] | 3.3 | 11.6
21 | 9 | 7 | 1250 | CC(C)c1cc(NC(=O)Nc2ccc(Oc3ccnc(Nc4cc(C#N)cc(OCCN5CCOCC5)c4)n3)c3ccccc23)n(-c2cccc(CP(C)(C)=O)c2)n1 [Example 57, 1-(4-((2-((3-cyano-5-(2-morpholinoethoxy)phenyl)amino)pyrimidin-4-yl)oxy)-naphthalen-1-yl)-3-(1-(3-((dimethylphosphoryl)methyl)phenyl)-3-isopropyl-1H-pyrazol-5-yl)urea] | 2.7 | 10.5
